Patent EP4818172A1, “ASCORBIC ACID DERIVATIVES AND COSMETIC CONTAINING SAME” (Seiwa Kasei Co., Ltd., priority 2023, dated 2025)

How the values were obtained:
[1] = system: Normal human dermal fibroblasts (NHDF); test: Hyaluronic acid production promoting effect (ELISA of supernatant); assay type: cell-based; settings: sample at 10 mM or less in serum-free D-MEM, cultured 48 hours, % of control group (100%), N=3
Experimental: Normal human dermal fibroblasts (NHDF) were prepared in D-MEM containing 5% (v/v) fetal bovine serum to a cell density of 2.5 × 10^4 cells/well, and then pre-incubated on a 96-well plate for 24 hours. After removing the medium, samples prepared in serum-free D-MEM were added to each well and cultured for 48 hours. After the culture was completed, the amount of hyaluronic acid in the supernatant was quantified by ELISA. Measurements were performed in triplicate (N=3).
(§1) The amount of hyaluronic acid produced when the sample was measured at a concentration of 10 mM or less was compared with that of the control group, and the results (% values when the control group is set to 100%) are shown in Tables 18 to 20 based on the following criteria. • <100%: ± • 100-120%: + • 120%<: ++ [Table 18]

[2] = Stability test -1: odor and coloration scored by 10 panelists; assay type: physicochemical; settings: Test Example 1, aqueous solution, total score of 10 panelists
Experimental: (§2) For each of the samples of Synthesis Examples 1 to 6, 1% aqueous solutions were adjusted to pH 3, 5, 7, 8, and 9 with a dilute potassium hydroxide aqueous solution, and then placed in 50 mL screw tubes and • 2: Color changes compared to immediately after preparation. • 1: Strongly colored compared to immediately after preparation. Based on the results of the above evaluation, the following classification was made: • ○: Total score of 10 panelists is 25 or more • △: Total score of 10 panelists is 16-24 • ×: The total score of 10 panelists is 15 or less [Table 10]

[3] = Stability test -1: residual rate of 1% aqueous solutions at pH 3 to 9 on storage; assay type: physicochemical; settings: for Residual Rate After 2 weeks / Residual Rate After 4 weeks: 1% aqueous solution
[4] = system: Normal human dermal fibroblasts; test: Collagen production promoting effect (ELISA of free collagen in supernatant); assay type: cell-based; settings: sample at 10 mM or less, cultured 48 hours, % of control group (100%), N=3
Experimental: Normal human dermal fibroblasts were prepared in D-MEM containing 5% (v/v) fetal bovine serum to a cell density of 2.5 × 10^4 cell s /well, and then pre-incubated for 24 hours on a 96-well plate. After removing the medium, samples prepared to a predetermined concentration in D-MEM containing 5% (v/v) fetal bovine serum were added to each well and cultured for 48 hours. After the culture was completed, the amount of free collagen in the supernatant was quantified by ELISA. Measurements were performed in triplicate (N=3).
as §1, with “collagen” for “hyaluronic acid”, “was” for “is”, “Table 17” for “Tables 18 to 20”, “100-140%:” for “100-120%:”, “140%<:” for “120%<:”, “17]” for “18]”

[5] = Stability test -2: odor and coloration of cream stored at 50°C; assay type: physicochemical; settings: Test Example 2, cream stored at 50°C, total score of 10 panelists
Experimental: as §2
(§3) For each of the samples of Synthesis Examples 9 to 32, (a) and (b) shown in Table 12 were each heated and mixed. After cooling, (c) shown in Table 12 was added to prepare a cream with a pH of 7 or 9. The sample was stored at 50°C for 4 weeks, and the residual rate was determined in the same manner as in Test Example 1 and evaluated according to the criteria described below. The odor and coloration were also evaluated according to the same method and criteria as in Test Example 1. The results regarding the residual rate are shown in Tables 13 and 14, and the results regarding the odor and coloration are shown in Tables 15 and 16.

[6] = Stability test -2: residual rate in cream of pH 7 or 9 stored at 50°C; assay type: physicochemical; settings: cream with 4.0 W/W% derivative
Experimental: as §3
• ⊚: 95% or more • ○: 85% or more, less than 95% • ×: Less than 85% [Table 12]

Odor After 4 weeks [5]	Residual Rate After 2 weeks ([6]; pH7, stored at 50°C)	Residual Rate After 4 weeks ([6]; pH7, stored at 50°C)	Residual Rate After 2 weeks ([6]; pH9, stored at 50°C)	Residual Rate After 4 weeks ([6]; pH9, stored at 50°C)	Compound	Hyaluronic acid production-promoting effect [1]	Collagen production-promoting effect [4]	Coloration After 2 weeks [5]	Odor After 2 weeks [5]	Coloration After 4 weeks [5]	other results
–	–	–	–	–	O=C1O[C@H]([C@@H](O)CO)C(O)=C1O [Ascorbic acid]	± (<100%)	–	–	–	–	Coloration After 2 weeks [2]: Δ; Odor After 2 weeks [2]: Δ; Coloration After 4 weeks [2]: × (The total score of 10 panelists is 15 or less); Odor After 4 weeks [2]: × (The total score of 10 panelists is 15 or less); Residual Rate After 2 weeks ([3]; pH3, stored at 50°C): ○; Residual Rate After 4 weeks ([3]; pH3, stored at 50°C): Δ; Residual Rate After 2 weeks ([3]; pH5, stored at 50°C): ○; Residual Rate After 4 weeks ([3]; pH5, stored at 50°C): ×; Residual Rate After 2 weeks ([3]; pH7, stored at 50°C): ×; Residual Rate After 4 weeks ([3]; pH7, stored at 50°C): ×; Residual Rate After 2 weeks ([3]; pH8, stored at 50°C): ×; Residual Rate After 4 weeks ([3]; pH8, stored at 50°C): ×; Residual Rate After 2 weeks ([3]; pH9, stored at 50°C): ×; Residual Rate After 4 weeks ([3]; pH9, stored at 50°C): ×; residual rate ([3]; Test Example 1, pH 7 to 9, stored at 50°C, after two weeks): less than 30%
Δ	⊚ (95% or more)	⊚ (95% or more)	⊚ (95% or more)	⊚ (95% or more)	CCCCCCCCCCCCCCCC(=O)OCC(OC(=O)CCCCCCCCCCCCCCC)C1OC(=O)C2=C1OCCCO2 (stereo not shown) [Synthesis Example 27, 5,6-O-dipalmitoyl-2,3-O-(1,3-propanediyl) ascorbic acid]	++ (120%<)	++ (140%<)	○ (Total score of 10 panelists is 25 or more)	○ (Total score of 10 panelists is 25 or more)	Δ	–
Δ	⊚ (95% or more)	⊚ (95% or more)	⊚ (95% or more)	⊚ (95% or more)	CCCC(=O)OCC(OC(=O)CCC)C1OC(=O)C2=C1OCCCO2 (stereo not shown) [synthesis example 21, 5,6-O-dibutanoyl-2,3-O-(1,3-propanediyl) ascorbic acid]	++ (120%<)	++ (140%<)	○ (Total score of 10 panelists is 25 or more)	○ (Total score of 10 panelists is 25 or more)	○ (Total score of 10 panelists is 25 or more)	–
Δ	⊚ (95% or more)	⊚ (95% or more)	⊚ (95% or more)	○ (85% or more, less than 95%)	CCCCCCCCCCCCCCCC(=O)OCC(O)C1OC(=O)C2=C1OCCCO2 (stereo not shown) [synthesis example 26, 6-O-palmitoyl-2,3-O-(1,3-propanediyl) ascorbic acid]	++ (120%<)	–	○ (Total score of 10 panelists is 25 or more)	○ (Total score of 10 panelists is 25 or more)	Δ	–
Δ	⊚ (95% or more)	⊚ (95% or more)	⊚ (95% or more)	⊚ (95% or more)	CC(C)CCCCCCCCCCCCCCC(=O)OCC(OC(=O)CCCCCCCCCCCCCCC(C)C)C1OC(=O)C2=C1OCCCO2 (stereo not shown) [synthesis example 29, 5,6-O-diisostearoyl-2,3-O-(1,3-propanediyl) ascorbic acid]	+ (100-120%)	++ (140%<)	○ (Total score of 10 panelists is 25 or more)	○ (Total score of 10 panelists is 25 or more)	○ (Total score of 10 panelists is 25 or more)	–
Δ	⊚ (95% or more)	⊚ (95% or more)	⊚ (95% or more)	⊚ (95% or more)	CC(C)CCCCCCCCCCCCCCC(=O)OCC(O)C1OC(=O)C2=C1OCCO2 (stereo not shown) [synthesis example 31, 6-O-isostearoyl-2,3-O-(1,2-ethanediyl) ascorbic acid]	++ (120%<)	–	○ (Total score of 10 panelists is 25 or more)	○ (Total score of 10 panelists is 25 or more)	○ (Total score of 10 panelists is 25 or more)	–
Δ	⊚ (95% or more)	⊚ (95% or more)	⊚ (95% or more)	⊚ (95% or more)	CCCCCCCC(=O)OCC(OC(=O)CCCCCCC)C1OC(=O)C2=C1OCCCCO2 (stereo not shown) [synthetic example 12, 5,6-O-dioctanoyl-2,3-O-(1,4-butanediyl) ascorbic acid]	++ (120%<)	++ (140%<)	○ (Total score of 10 panelists is 25 or more)	○ (Total score of 10 panelists is 25 or more)	○ (Total score of 10 panelists is 25 or more)	–
Δ	⊚ (95% or more)	⊚ (95% or more)	⊚ (95% or more)	⊚ (95% or more)	CCCCCCCCCCCCCCCC(=O)OCC(OC(=O)CCCCCCCCCCCCCCC)C1OC(=O)C2=C1OCCCCO2 (stereo not shown) [synthetic example 16, 5,6-O-dipalmitoyl-2,3-O-(1,4-butanediyl) ascorbic acid]	++ (120%<)	–	○ (Total score of 10 panelists is 25 or more)	○ (Total score of 10 panelists is 25 or more)	○ (Total score of 10 panelists is 25 or more)	–
Δ	⊚ (95% or more)	⊚ (95% or more)	⊚ (95% or more)	⊚ (95% or more)	CC(C)CCCCCCCCCCCCCCC(=O)OCC(O)C1OC(=O)C2=C1OCCCO2 (stereo not shown) [synthetic example 28, 6-O-isostearoyl-2,3-O-(1,3-propanediyl) ascorbic acid]	++ (120%<)	–	○ (Total score of 10 panelists is 25 or more)	○ (Total score of 10 panelists is 25 or more)	○ (Total score of 10 panelists is 25 or more)	–
–	–	–	–	–	Bisglyceryl ascorbic acid [reference compound]	–	–	–	–	–	Coloration After 2 weeks [2]: Δ; Odor After 2 weeks [2]: Δ; Coloration After 4 weeks [2]: Δ; Odor After 4 weeks [2]: Δ; Residual Rate After 2 weeks ([3]; pH3, stored at 50°C): ⊚; Residual Rate After 4 weeks ([3]; pH3, stored at 50°C): ⊚; Residual Rate After 2 weeks ([3]; pH5, stored at 50°C): ⊚; Residual Rate After 4 weeks ([3]; pH5, stored at 50°C): ⊚; Residual Rate After 2 weeks ([3]; pH7, stored at 50°C): ×; Residual Rate After 4 weeks ([3]; pH7, stored at 50°C): ×; Residual Rate After 2 weeks ([3]; pH8, stored at 50°C): ×; Residual Rate After 4 weeks ([3]; pH8, stored at 50°C): ×; Residual Rate After 2 weeks ([3]; pH9, stored at 50°C): ×; Residual Rate After 4 weeks ([3]; pH9, stored at 50°C): ×
